What was measured:
[1] = tested on: recombinant Bombyx mori nuclear polyhedrosis viruses rBNVγ; assay type: cell-based, Bombyx mori nuclear polyhedrosis virus; conditions: pH 3.5
Escherichia coli TI41 = assay type: cell-based; conditions: Addition of 20 mg/l of thiaisoleucine, 30° C., 48 hours; no addition = 100
Escherichia coli JM101 = assay type: cell-based; conditions: Addition of 20 mg/l of thiaisoleucine, 30° C., 48 hours; no addition = 100
Escherichia coli TI139 = assay type: cell-based; conditions: Addition of 20 mg/l of thiaisoleucine, 30° C., 48 hours; no addition = 100

Compound	Amount of infectious viruses [1]	Relative degree of growth (Escherichia coli TI41)	Relative degree of growth (Escherichia coli JM101)	Relative degree of growth (Escherichia coli TI139)
CC(C)(C)CC(C)(C)c1ccc(OCCOCC[N+](C)(C)Cc2ccccc2)cc1 [benzethonium chloride]	Not detected	–	–	–
thiaisoleucine	–	95.2%	17.1%	106.1%

Source: patent publication US6391296B1 (priority 1997, dated 2002)
